Structures can show the parent of a compound that is named as a salt. Where two headings read alike, the source gives them in different places.
Columns and labels:
[1] = test system: K562; test: CellTiterGlo cell viability assay, K562; format: cell-based
In short: (§1)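 Luminescent ATP readout (CellTiterGlo) gives absolute EC50 values and top-concentration percentage inhibition. Cells had been treated for ~72 h with a 9-point, 3.16-fold dilution series starting at 198 μM final, tested in duplicate.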

[2] = test system: RPMI-8226; test: CellTiterGlo cell viability assay, RPMI-8226; format: cell-based, Human
In short: as §1

[3] = test system: OVCAR 3; test: CellTiterGlo cell viability assay, OVCAR 3; format: cell-based; details: Homo sapiens; for EC50: read-out: Ab EC50; for inhibition at 198 µM: percentage inhibition at the highest concentration tested, read-out: Top Inhibit
In short: as §1

[4] = test system: HT29; test: CellTiterGlo cell viability assay, HT29; format: cell-based; details: Homo sapiens, HT29, 72 h; for EC50: read-out: Ab EC50; for inhibition at 198 µM: percentage inhibition at the highest concentration tested, read-out: Top Inhibit
In short: as §1

[5] = test system: CCRF-CEM; test: CellTiterGlo cell viability assay, CCRF-CEM; format: cell-based; details: 72 h; for EC50: read-out: Ab EC50; for inhibition at 198 µM: percentage inhibition at the highest concentration tested, read-out: Top Inh
In short: as §1

[6] = test system: MCF-7; test: CellTiterGlo cell viability assay, MCF-7; format: cell-based; details: MCF-7, 72 h; for inhibition at 198 µM: percentage inhibition at the highest concentration tested, read-out: Top Inhibit; for EC50: read-out: Ab EC50
In short: as §1

[7] = test system: KG-1; test: CellTiterGlo cell viability assay, KG-1; format: cell-based; details: Homo sapiens, KG-1, 72 h
In short: as §1

[8] = test system: HL-60; test: CellTiterGlo cell viability assay, HL-60; format: cell-based; details: Homo sapiens, HL-60, 72 h; for inhibition at 198 µM: read-out: Top Inh
In short: as §1

[9] = in vitro; details: human, hepatocytes, pH 7.3
[10] = test system: MOLT-4; test: CellTiterGlo cell viability assay, MOLT-4; format: cell-based
In short: as §1

[11] = test system: RL; test: CellTiterGlo cell viability assay, RL; format: cell-based; details: Homo sapiens, 72 h
In short: as §1

[12] = test system: HepG2; test: CellTiterGlo cell viability assay, HepG2; format: cell-based
In short: as §1

[13] = test system: Mia-Pa-Ca-2; test: CellTiterGlo cell viability assay, Mia-Pa-Ca-2; format: cell-based; details: Homo sapiens, MIA PaCa-2, Mia-Pa-Ca-2, 72 h; for EC50: absolute EC50, read-out: Ab EC50; for inhibition at 198 µM: percentage inhibition at the highest concentration tested, read-out: Top Inhibit
Method: A subset of compounds of the invention were assayed for their cytotoxic activity in an array of different solid tumours and haematological malignancies using the following assay.
In vitro viability assay were performed to assess the effects of compounds on cell viability in selected cell lines over 72 h using the CellTiterGlo (CTG, Promega-G7573) assay. The tests were performed in duplicates with treatment of compounds at 9 points, 3.16 folds titration in 96 well plates over ˜72 h. The compound starting concentrations were 198 μM. Cell viability assay using CellTiterGlo in 96-well plate were performed. Compound treatment 72 h, standard growth conditions, duplicates. Compounds were dissolved to 40 mM with thawed […]. Compounds were serially diluted at 3.16 fold in thawed DMSO, and warmed to 37° C. before being dissolved in media (2 μL+200 μL). After compounds were dissolved in media, media containing compounds were warmed to 37° C. in incubator and then compounds in media were added to cell plates (50 μL+50 μL) in duplicates. The compounds' final concentrations were from 198 μM to 19.8 nM. All compound solubilities were checked and recorded again, then the plates were transferred to CO2 tissue culture incubator immediately and incubated for 3 days. DMSO final concentration is 0.5%. The parent nucleoside in each case was tested as a comparator, as was an exemplary ProTide. The drugs of the ProTide class that were tested were as follows:
The following cell lines were tested and are referred to in the Table 1 below:
In Tables 2, 3 and 4, ‘Ab EC50’ refers to the absolute EC50 and ‘Top inhibit’ refers to the percentage inhibition achieved at the highest concentration tested.

[14] = Homo sapiens, K562, 72 h, read-out: Ab EC50
[15] = Homo sapiens, RPMI-8226, 72 h, read-out: Top Inh, RPMI-8226, 72 h, percentage inhibition at the highest concentration tested
[16] = Homo sapiens, MOLT-4, 72 h, percentage inhibition at the highest concentration tested, read-out: Top Inh
[17] = read-out: Top Inh, RL, 72 h, percentage inhibition at the highest concentration tested
[18] = Homo sapiens; HepG2, 72 h, percentage inhibition at the highest concentration tested; read-out: Top Inhibit
[19] = HT-29, absolute EC50, numeric values
[20] = absolute EC50, numeric values, read-out: Ab EC50
[21] = percentage inhibition at the highest concentration tested
[22] = Homo sapiens; MOLT-4, 72 h, absolute EC50, numeric values; read-out: Ab EC50
[23] = Homo sapiens; MOLT-4, 72 h, percentage inhibition at the highest concentration tested; read-out: Top Inh
[24] = percentage inhibition at the highest concentration tested, read-out: Top Inh
[25] = Table 3 classes, read-out: Ab EC50

## C[C@H](NP(=O)(OC[C@H]1O[C@@H](n2cnc3c(N)nc(Cl)nc32)[C@H](F)C1O)Oc1ccccc1)C(=O)OCc1ccccc1 (stereo partly shown) [A, reference compound]
[1]; [14]
  EC50: > 10 µM
[1]; read-out: Ab EC50; K 562, 72 h, Table 4 classes
  EC50: > 10 µM
[2]; Homo sapiens, RPMI-8226, 72 h, read-out: Ab EC50, RPMI-8226, 72 h, Table 3 classes
  EC50: 2 to 5 µM
[2]; Homo sapiens, RPMI-8226, 72 h, read-out: Ab EC50, RPMI-8226, 72 h, Table 4 classes
  EC50: 1 to 5 µM
[2]; [15]
  inhibition at 198 µM: 97%
[3]; OVCAR 3, 72 h, Table 4 classes
  EC50: > 10 µM
[3]; OVCAR 3, 72 h
  inhibition at 198 µM: 94%
[4]; HT-29, 72 h, Table 3 classes
  EC50: 2 to 5 µM
[4]; HT-29, 72 h, Table 4 classes
  EC50: 1 to 5 µM
[4]; HT-29, 72 h
  inhibition at 198 µM: 94%
[5]; Table 4 classes
  EC50: < 0.2 µM
[5]; Homo sapiens, Table 3 classes
  EC50: < 0.2 µM
[5]; Homo sapiens
  inhibition at 198 µM: 99.4%
[6]; Homo sapiens, MCF7, 72 h
  inhibition at 198 µM: 99.6%
[6]; Homo sapiens, MCF7, Table 3 classes
  EC50: 5 to 10 µM
[6]; Table 4 classes
  EC50: 5 to 10 µM
[7]; read-out: Ab EC50
  EC50: 0.2 to 1 µM
[7]; read-out: Top Inhibit
  inhibition at 198 µM: 93%
[8]; read-out: Ab EC50, HL-60, 72 h, Table 3 classes
  EC50: 0.2 to 2 µM
[8]; read-out: Ab EC50, HL-60, 72 h, Table 4 classes
  EC50: 0.2 to 1 µM
[8]
  inhibition at 198 µM: 97%
[9]
  half-life at 1 μM: 24 min
[10]; Homo sapiens, MOLT-4, 72 h, Table 3 classes, read-out: Ab EC50
  EC50: 0.2 to 2 µM
[10]; Homo sapiens, MOLT-4, 72 h, Table 4 classes, read-out: Ab EC50
  EC50: 0.2 to 1 µM
[10]; [16]
  inhibition at 198 µM: 93%
[11]; read-out: Ab EC50, RL, 72 h, Table 3 classes
  EC50: 2 to 5 µM
[11]; read-out: Ab EC50, RL, 72 h, Table 4 classes
  EC50: 1 to 5 µM
[11]; [17]
  inhibition at 198 µM: 99.8%
[12]; Homo sapiens; HepG2, 72 h, Table 4 classes; read-out: Ab EC50
  EC50: 5 to 10 µM
[12]; [18]
  inhibition at 198 µM: 99%

## Nc1ncnc2c1ncn2[C@@H]1O[C@H](CO)C[C@H]1O [Cordycepin, reference compound]
[1]; Homo sapiens; K562, 72 h, absolute EC50, numeric values; read-out: Ab EC50
  EC50: 118 µM
[1]; Homo sapiens; K562, 72 h, percentage inhibition at the highest concentration tested; read-out: Top Inh
  inhibition at 198 µM: 94%
[13]
  EC50: 84.7 µM
  inhibition at 198 µM: 88%
[2]; Homo sapiens; RPMI-8226, 72 h, absolute EC50, numeric values; read-out: Ab EC50
  EC50: > 198 µM
[2]; Homo sapiens; RPMI-8226, 72 h, percentage inhibition at the highest concentration tested; read-out: Top Inh
  inhibition at 198 µM: 17%
[4]; [19]
  EC50: 32.7 µM
[4]; HT-29
  inhibition at 198 µM: 87%
[8]; [20]
  EC50: 118 µM
[8]; [21]
  inhibition at 198 µM: 56%
[9]
  half-life: 48 min
[10]; [22]
  EC50: 101 µM
[10]; [23]
  inhibition at 198 µM: 76.5%
[11]; [20]
  EC50: > 198 µM
[11]; [24]
  inhibition at 198 µM: 16.6%

## C[C@H](NP(=O)(OC[C@@H]1C[C@H](O)[C@H](n2cnc3c(N)ncnc32)O1)Oc1ccccc1)C(=O)OCc1ccccc1 (stereo partly shown) [E, reference compound]
[1]; [14]
  EC50: 11 µM
[1]; Homo sapiens, K562, 72 h, read-out: Top Inh, K562, 72 h, percentage inhibition at the highest concentration tested
  inhibition at 198 µM: 87%
[13]
  EC50: 7.92 µM
  inhibition at 198 µM: 98%
[2]; Homo sapiens, RPMI-8226, 72 h, read-out: Ab EC50, RPMI-8226, 72 h, absolute EC50, numeric values
  EC50: 19.8 µM
[2]; [15]
  inhibition at 198 µM: 97.8%
[4]; HT-29, 72 h, absolute EC50, numeric values
  EC50: 10.8 µM
[4]; HT-29, 72 h
  inhibition at 198 µM: 97%
[8]; read-out: Ab EC50, HL-60, 72 h, absolute EC50, numeric values
  EC50: 31.1 µM
[8]
  inhibition at 198 µM: 97%
[10]; Homo sapiens, MOLT-4, 72 h, absolute EC50, numeric values, read-out: Ab EC50
  EC50: 5.23 µM
[10]; [16]
  inhibition at 198 µM: 96%
[11]; read-out: Ab EC50, RL, 72 h, absolute EC50, numeric values
  EC50: 18.3 µM
[11]; [17]
  inhibition at 198 µM: 90.5%

## Nc1nc(Cl)nc2c1ncn2[C@@H]1O[C@H](COP(=O)(O)OP(=O)(NCC(=O)OCc2ccccc2)Oc2ccccc2)C(O)[C@H]1F (stereo partly drawn) [Example 3, 2-Chloro-9-(2′-Deoxy-2′-fluoro-β-D-arabinofuranosyl)adenine-5′-O-[phenyl(benzoxy-L-glycinyl)] Diphosphate Triethylammonium Salt]
[1]; Homo sapiens, K562, 72 h, percentage inhibition at the highest concentration tested; read-out: Top Inh
  inhibition at 198 µM: 24%
[1]; Homo sapiens; K562, 72 h, Table 3 classes; read-out: Ab EC50
  EC50: > 10 µM
[2]; Homo sapiens, RPMI-8226, 72 h, Table 3 classes, read-out: Ab EC50
  EC50: 5 to 10 µM
[2]; Homo sapiens, RPMI-8226, 72 h, percentage inhibition at the highest concentration tested, read-out: Top Inh
  inhibition at 198 µM: 91.6%
[3]; OVCAR-3, 72 h
  inhibition at 198 µM: 49%
[3]; OVCAR 3, 72 h, Table 3 classes
  EC50: > 10 µM
[4]; HT-29, 72 h, Table 3 classes
  EC50: 0.2 to 2 µM
[4]; HT-29, 72 h
  inhibition at 198 µM: 61%
[5]; Homo sapiens, Table 3 classes
  EC50: < 0.2 µM
[5]; Homo sapiens
  inhibition at 198 µM: 99.6%
[6]; Homo sapiens, MCF7, 72 h, Table 3 classes
  EC50: 2 to 5 µM
[6]; Homo sapiens, MCF7, 72 h
  inhibition at 198 µM: 59%
[8]; [25]
  EC50: < 0.2 µM
[8]; [21]
  inhibition at 198 µM: 97%
[9]
  half-life: 20 to 100 min
[10]; [16]
  inhibition at 198 µM: 96%
[10]; Homo sapiens; MOLT-4, 72 h, Table 3 classes; read-out: Ab EC50
  EC50: < 0.2 µM
[11]; [25]
  EC50: 0.2 to 2 µM
[11]; [24]
  inhibition at 198 µM: 63%
[12]; Homo sapiens, HepG2, 72 h, Table 3 classes, read-out: Ab EC50
  EC50: 2 to 5 µM
[12]; Homo sapiens, HepG2, 72 h, percentage inhibition at the highest concentration tested, read-out: Top Inhibit
  inhibition at 198 µM: 53%

## Nc1ccn([C@@H]2O[C@H](CO)[C@@H](O)C2(F)F)c(=O)n1 [Gemcitabine, reference compound]
[13]
  EC50: 0.03 µM
  inhibition at 198 µM: 79%
[3]; OVCAR 3, 72 h, absolute EC50, numeric values
  EC50: > 198 µM
[3]; OVCAR 3, 72 h
  inhibition at 198 µM: 44%
[4]; [19]
  EC50: 0.22 µM
[4]; HT-29
  inhibition at 198 µM: 65%
[5]; Homo sapiens, absolute EC50, numeric values
  EC50: 0.02 µM
[5]; Homo sapiens
  inhibition at 198 µM: 101%
[6]; Homo sapiens, MCF7, absolute EC50, numeric values
  EC50: 0.011 µM
[6]; Homo sapiens, MCF7
  inhibition at 198 µM: 53%
[10]; [22]
  EC50: 0.004 µM
[10]; [23]
  inhibition at 198 µM: 88%
[12]; Homo sapiens; HepG2, 72 h, absolute EC50, numeric values; read-out: Ab EC50
  EC50: 28 µM
[12]; [18]
  inhibition at 198 µM: 54%

From patent US11560400B2, “Salts of diphosphate phosphoramidate of nucleosides as anticancer compounds” (NuCana plc, priority 2017, dated 2023)
